In paper PMC3634466, “Cantharidin Impedes Activity of Glutathione S-Transferase in the Midgut of Helicoverpa armigera Hübner” (International Journal of Molecular Sciences, 2013):
pIC50: −log10 of the molar value.

How the values were obtained:
[1] = target: T1, HaGST (recombinant rHaGST, delta-class glutathione S-transferase; GenBank EF033109 / ABK40535) (Helicoverpa armigera, UniProt A0MSN0); assay: GSH/CDNB conjugation assay at […] nm with purified rHaGST; Lineweaver-Burk plot; assay type: biochemical; design: His-tagged full-length rHaGST expressed from pET-28a in E. coli BL-21 (DE-3), Ni-NTA purified; 220 residues
T1 sequence (A0MSN0 1-220): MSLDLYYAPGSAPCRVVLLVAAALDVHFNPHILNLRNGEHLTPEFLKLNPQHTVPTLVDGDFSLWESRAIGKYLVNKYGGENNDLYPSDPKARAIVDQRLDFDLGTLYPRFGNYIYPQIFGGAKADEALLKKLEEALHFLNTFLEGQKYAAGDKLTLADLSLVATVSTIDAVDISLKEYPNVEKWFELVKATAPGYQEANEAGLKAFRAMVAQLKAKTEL

[2] = target: T1, HaGST (recombinant rHaGST, delta-class glutathione S-transferase; GenBank EF033109 / ABK40535)

Structure (SMILES) | pIC50 [1] | enzyme kinetics of purified rHaGST with variable GSH (Lineweaver-Burk), CDNB as [2]
C[C@@]12C(=O)OC(=O)[C@]1(C)[C@H]1CC[C@@H]2O1 [cantharidin] | 4.90 | –
N[C@@H](CCC(=O)N[C@@H](CS)C(=O)NCC(=O)O)C(=O)O [GSH, glutathione] | – | the rHaGST activity was calculated under different concentrations of GSH
